How the values were obtained:
EGFR-related pathway = EGFR-related pathway activation; assay type: cell-based
Experimental: (§1) The present invention further provides an application of a gold (I) Gefitinib derivative, mainly providing the study of the effect of Embodiment 8 (L1Au2 for short). […] L1Au2 is mainly used to treat lung cancer resistant to first- and second-generation EGFR-TKI. In vitro experiments on L1Au2 were conducted against Gefitinib-sensitive and Gefitinib-resistant lung cancer. […] The cell lines used in the experiment are internationally universal lung cancer tumor cell lines: Gefitinib-sensitive lung cancer cell line PC9, and Gefitinib-resistant cell lines PC9GR and H1975. […] See FIG. 3 for the effect diagram of a specific product.

[1] = system: drug-resistant subcutaneous tumors; assay: subcutaneous drug-resistant tumor model in nude mice; conditions: in vivo and in vitro
Experimental: as §1

lung cancer cells [2] = assay: Transwell migration experiment; assay type: cell-based
Experimental: as §1

[3] = system: Gefitinib-resistant lung cancer cells; assay: mitochondrial damage, oxidative stress and ferroptosis in resistant cells; assay type: cell-based
Experimental: as §1

[4] = system: lung cancer cell lines PC9, PC9GR and H1975; assay: CCK-8 proliferation / cell death experiment; assay type: cell-based
Experimental: as §1

[5] = system: lung cancer cell lines PC9, PC9GR and H1975; assay: plate cloning (colony formation) experiment; assay type: cell-based
Experimental: as §1

GPX4 protein = molecular target: T1, GPX4 protein (Homo sapiens, UniProt P36969); assay: GPX4 protein degradation; assay type: cell-based; conditions: by promoting autophagy and inducing GPX4 ubiquitination
T1 construct: endogenous in cells; host or cells: Gefitinib-resistant lung cancer cells (PC9GR / H1975; not specified which)
T1 sequence (P36969 1-197): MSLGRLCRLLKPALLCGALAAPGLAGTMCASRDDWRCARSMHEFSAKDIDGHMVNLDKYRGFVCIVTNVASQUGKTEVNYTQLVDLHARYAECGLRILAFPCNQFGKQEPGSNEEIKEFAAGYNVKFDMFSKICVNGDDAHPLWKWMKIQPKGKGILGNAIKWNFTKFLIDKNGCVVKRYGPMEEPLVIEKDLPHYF
Experimental: as §1

thioredoxin reductase = thioredoxin reductase activity; assay type: biochemical
Experimental: as §1

lung cancer cells [6] = assay: Annexin V-FITC/PI double staining apoptosis assay; assay type: cell-based
Experimental: as §1

COc1cc2ncnc(Nc3ccc(F)c(Cl)c3)c2cc1OCCCC#[C][Au][PH]12CN3CN(CN(C3)C1)C2 [Embodiment 8]
EGFR-related pathway activation (EGFR-related pathway): inhibits EGFR-related pathway activation | performance compared with Gefitinib against drug-resistant tumors [1]: performs better than Gefitinib | migration ability of lung cancer cells (FIG. 2C) (lung cancer cells [2]): significantly inhibited the migration ability | intracellular mitochondrial damage [3]: induces intracellular mitochondrial damage | intracellular oxidative stress level [3]: severely induces elevation of the intracellular oxidative stress level | ferroptosis ([3]; Gefitinib-resistant lung cancer cells): resulting in ferroptosis | lung cancer cell death over time (FIG. 2A) ([4]; CCK8): induces lung cancer cell death in a time-dependent manner | inhibition of proliferation ([4]; CCK-8 and plate cloning, PC9, PC9GR, H1975): obvious effect on inhibiting proliferation | colony formation ability of lung cancer cells (FIG. 2B) [5]: significantly inhibits the colony formation ability | GPX4 protein level (GPX4 protein): degrades GPX4 protein | thioredoxin reductase activity (thioredoxin reductase): inhibits thioredoxin reductase activity | apoptosis of lung cancer cells (FIG. 2D) (lung cancer cells [6]): significantly promoted the apoptosis

Source: patent US20250154179A1, “GOLD (I) GEFITINIB DERIVATIVES AND PREPARATION METHOD AND APPLICATION THEREOF” (TONGJI HOSPITAL, TONGJI MEDICAL COLLEGE, HUAZHONG …, priority 2023, published 2025)
